For assay [1], the target named is T1, NUAK family SNF1-like kinase 1 (Homo sapiens) (UniProt O60285).
T1 sequence (whole entry): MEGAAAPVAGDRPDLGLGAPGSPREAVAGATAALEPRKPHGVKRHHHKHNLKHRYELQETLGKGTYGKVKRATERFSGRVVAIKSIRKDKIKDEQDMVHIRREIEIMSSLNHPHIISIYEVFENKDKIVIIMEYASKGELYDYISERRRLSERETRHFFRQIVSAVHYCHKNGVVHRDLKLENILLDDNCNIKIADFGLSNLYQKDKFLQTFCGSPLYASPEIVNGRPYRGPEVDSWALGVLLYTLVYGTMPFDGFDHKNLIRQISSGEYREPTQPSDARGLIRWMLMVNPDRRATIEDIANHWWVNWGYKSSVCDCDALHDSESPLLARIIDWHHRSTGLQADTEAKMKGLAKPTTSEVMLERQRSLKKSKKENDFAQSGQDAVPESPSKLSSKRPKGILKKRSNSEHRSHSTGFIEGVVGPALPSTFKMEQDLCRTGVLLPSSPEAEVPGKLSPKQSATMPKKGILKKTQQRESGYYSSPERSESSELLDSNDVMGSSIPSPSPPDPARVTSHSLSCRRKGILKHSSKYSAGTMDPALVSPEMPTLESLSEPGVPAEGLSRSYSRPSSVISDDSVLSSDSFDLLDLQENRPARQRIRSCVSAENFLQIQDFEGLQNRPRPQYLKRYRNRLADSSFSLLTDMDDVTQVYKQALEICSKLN
The experiment in a line: Selectivity interaction (Upstate Kinase Profiler service (Millipore)) EUB0000056c NUAK1. Conditions: at 1 µM.

The target in assay [2] is T2, Serine/threonine-protein kinase haspin (Homo sapiens) (UniProt Q8TF76).
T2 sequence (whole entry): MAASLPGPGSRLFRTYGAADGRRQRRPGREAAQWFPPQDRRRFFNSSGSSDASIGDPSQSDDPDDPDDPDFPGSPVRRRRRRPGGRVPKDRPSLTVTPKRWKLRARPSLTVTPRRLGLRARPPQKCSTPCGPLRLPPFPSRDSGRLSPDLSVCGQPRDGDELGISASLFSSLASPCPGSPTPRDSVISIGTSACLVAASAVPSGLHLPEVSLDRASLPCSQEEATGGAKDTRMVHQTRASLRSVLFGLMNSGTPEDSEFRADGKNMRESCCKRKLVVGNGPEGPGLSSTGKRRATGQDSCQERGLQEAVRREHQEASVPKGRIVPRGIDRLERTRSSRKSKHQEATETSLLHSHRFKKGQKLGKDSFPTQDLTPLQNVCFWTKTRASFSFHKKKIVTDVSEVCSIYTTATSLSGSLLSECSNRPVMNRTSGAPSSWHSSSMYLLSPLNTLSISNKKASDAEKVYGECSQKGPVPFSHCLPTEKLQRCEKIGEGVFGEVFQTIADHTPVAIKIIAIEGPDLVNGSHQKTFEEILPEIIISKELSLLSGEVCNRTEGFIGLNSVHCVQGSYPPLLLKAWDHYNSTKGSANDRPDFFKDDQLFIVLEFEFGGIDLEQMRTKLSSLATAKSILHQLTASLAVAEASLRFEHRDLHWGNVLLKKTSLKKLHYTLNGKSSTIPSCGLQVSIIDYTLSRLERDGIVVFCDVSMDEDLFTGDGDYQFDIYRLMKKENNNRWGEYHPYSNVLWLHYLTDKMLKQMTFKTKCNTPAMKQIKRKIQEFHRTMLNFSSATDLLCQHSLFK
The experiment in a line: Selectivity interaction (KinomeScan (DiscoverX)) EUB0001049a GSG2. Conditions: at 1 µM.

In assay [3] the target is T3, Alpha-1B adrenergic receptor (Homo sapiens) (UniProt P35368).
T3 sequence (whole entry): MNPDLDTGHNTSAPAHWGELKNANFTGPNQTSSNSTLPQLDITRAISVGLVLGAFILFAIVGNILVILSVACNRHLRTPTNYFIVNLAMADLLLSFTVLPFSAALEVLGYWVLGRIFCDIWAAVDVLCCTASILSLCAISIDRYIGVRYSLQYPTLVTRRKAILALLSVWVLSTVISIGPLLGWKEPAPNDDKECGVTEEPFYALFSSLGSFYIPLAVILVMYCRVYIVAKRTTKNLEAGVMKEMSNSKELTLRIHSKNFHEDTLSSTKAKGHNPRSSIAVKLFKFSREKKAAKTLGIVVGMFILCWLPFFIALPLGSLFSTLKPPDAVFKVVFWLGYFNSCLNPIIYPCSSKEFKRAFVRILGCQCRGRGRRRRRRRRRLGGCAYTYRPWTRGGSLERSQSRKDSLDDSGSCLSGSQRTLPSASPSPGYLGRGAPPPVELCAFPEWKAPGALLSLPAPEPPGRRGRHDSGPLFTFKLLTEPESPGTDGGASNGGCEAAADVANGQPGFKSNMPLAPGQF
In words: Selectivity interaction (Panel of kinases, GPCRs, ion channels and transporters (enzymatic assay)) EUB0000223bCl ADRA1B.

For assay [4], the target named is Mitogen-activated protein kinase kinase kinase 1 (Homo sapiens, UniProt Q13233). In words: Selectivity interaction (KinomeScan (DiscoverX)) EUB0000045b MAP3K1.
Mitogen-activated protein kinase kinase kinase 1, sequence (Q13233 whole entry): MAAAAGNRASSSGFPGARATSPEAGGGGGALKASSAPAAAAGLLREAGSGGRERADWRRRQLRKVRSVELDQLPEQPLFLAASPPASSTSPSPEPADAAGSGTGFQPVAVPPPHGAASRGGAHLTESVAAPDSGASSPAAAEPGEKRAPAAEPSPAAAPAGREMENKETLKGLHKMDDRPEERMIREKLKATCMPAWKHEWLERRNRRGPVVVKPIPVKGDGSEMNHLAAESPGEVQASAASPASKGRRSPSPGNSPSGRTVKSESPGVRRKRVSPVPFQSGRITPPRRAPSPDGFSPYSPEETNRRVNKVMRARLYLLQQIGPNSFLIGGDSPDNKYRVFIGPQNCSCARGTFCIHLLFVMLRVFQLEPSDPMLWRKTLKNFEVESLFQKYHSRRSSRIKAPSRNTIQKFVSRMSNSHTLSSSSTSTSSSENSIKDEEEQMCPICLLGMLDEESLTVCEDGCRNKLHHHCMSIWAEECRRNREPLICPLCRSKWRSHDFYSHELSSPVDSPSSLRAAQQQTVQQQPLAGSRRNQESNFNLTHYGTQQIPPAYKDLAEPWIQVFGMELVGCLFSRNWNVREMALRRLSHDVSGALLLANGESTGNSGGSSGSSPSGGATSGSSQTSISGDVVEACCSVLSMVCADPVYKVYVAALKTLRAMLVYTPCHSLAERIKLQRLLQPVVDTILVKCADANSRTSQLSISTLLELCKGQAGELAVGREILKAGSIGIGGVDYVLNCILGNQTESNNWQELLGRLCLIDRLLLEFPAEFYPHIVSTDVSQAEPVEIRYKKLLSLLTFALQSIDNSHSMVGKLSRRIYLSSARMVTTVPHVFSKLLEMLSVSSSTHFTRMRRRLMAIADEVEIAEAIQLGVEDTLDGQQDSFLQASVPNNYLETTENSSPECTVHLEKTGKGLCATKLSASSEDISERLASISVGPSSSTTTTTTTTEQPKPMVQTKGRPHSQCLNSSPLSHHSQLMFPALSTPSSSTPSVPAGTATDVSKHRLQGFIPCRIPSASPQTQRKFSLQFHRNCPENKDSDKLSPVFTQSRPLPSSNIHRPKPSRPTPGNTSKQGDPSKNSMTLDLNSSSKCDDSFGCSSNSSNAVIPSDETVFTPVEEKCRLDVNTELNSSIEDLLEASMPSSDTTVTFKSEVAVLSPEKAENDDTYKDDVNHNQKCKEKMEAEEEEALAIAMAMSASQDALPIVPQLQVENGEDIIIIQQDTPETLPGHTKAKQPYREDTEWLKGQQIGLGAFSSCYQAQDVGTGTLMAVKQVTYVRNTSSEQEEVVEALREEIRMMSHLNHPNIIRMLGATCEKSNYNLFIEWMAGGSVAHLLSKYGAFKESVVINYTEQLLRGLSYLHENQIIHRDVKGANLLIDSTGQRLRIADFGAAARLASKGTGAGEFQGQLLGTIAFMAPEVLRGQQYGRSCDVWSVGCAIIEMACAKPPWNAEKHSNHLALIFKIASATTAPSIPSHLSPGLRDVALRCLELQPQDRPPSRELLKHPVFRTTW
The target of assay [5] is Ribosomal protein S6 kinase alpha-2 (Homo sapiens) (UniProt Q15349). In words: Selectivity interaction (KinomeScan (DiscoverX)) EUB0000607a RPS6KA2. Conditions: at 10 µM.
Ribosomal protein S6 kinase alpha-2 (Homo sapiens), sequence (Q15349 whole entry): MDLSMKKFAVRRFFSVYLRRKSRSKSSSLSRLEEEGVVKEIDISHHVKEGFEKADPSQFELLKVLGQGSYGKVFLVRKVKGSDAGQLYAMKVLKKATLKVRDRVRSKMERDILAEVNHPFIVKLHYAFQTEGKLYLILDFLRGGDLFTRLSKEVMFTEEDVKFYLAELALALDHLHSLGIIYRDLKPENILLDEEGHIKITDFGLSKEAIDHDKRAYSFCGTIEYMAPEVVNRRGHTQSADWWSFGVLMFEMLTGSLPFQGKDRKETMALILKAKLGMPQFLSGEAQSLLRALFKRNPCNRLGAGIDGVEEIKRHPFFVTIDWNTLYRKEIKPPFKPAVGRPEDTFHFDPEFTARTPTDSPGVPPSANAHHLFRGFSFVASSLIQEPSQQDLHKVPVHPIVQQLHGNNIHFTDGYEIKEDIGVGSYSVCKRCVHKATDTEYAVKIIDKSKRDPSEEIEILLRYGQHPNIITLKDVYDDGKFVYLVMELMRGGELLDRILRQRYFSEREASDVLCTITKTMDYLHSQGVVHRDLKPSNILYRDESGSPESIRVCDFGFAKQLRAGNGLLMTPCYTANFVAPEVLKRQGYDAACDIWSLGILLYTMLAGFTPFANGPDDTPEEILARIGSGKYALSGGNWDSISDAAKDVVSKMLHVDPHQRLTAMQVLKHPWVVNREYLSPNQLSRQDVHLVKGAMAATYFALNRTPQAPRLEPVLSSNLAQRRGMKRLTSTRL
The target in assay [6] is Receptor-interacting serine/threonine-protein kinase 2 (Homo sapiens, UniProt O43353). The experiment in a line: Selectivity interaction (KinomeScan (DiscoverX)) EUB0000618a RIPK2. As to conditions: at 10 µM.
Receptor-interacting serine/threonine-protein kinase 2, sequence (O43353 whole entry): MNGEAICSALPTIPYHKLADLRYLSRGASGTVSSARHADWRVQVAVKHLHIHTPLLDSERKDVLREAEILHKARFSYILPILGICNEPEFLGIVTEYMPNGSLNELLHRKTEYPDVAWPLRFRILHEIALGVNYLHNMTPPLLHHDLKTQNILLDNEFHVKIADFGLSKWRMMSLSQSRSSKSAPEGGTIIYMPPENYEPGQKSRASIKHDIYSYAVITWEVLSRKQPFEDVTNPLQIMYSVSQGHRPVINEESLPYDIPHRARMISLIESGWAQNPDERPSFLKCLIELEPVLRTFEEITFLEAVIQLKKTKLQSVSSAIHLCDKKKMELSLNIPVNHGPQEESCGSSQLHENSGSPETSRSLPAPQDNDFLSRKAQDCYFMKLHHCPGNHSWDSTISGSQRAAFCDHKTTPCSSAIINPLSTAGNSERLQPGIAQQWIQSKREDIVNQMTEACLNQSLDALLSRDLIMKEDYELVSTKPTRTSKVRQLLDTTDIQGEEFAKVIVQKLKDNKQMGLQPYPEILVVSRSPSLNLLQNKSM

Molecules are shown by their SMILES.

Results on 6 compounds are retold here after ChEMBL document CHEMBL5465560, “Selectivity Literature for EUbOPEN Chemogenomic Library” (2024).

As for `Cc1ccc(-c2ccc3c(ccc4sc5c(c43)NC[C@@H](C)NC5=O)n2)cn1`, the % of inhibition in assay [1] amounted to 35%.
Compound `COc1cc(Nc2nc(C)cc(-c3cnn4nc(OC)ccc34)n2)cc(C(F)(F)F)c1` gave a % of control in assay [2] of 100%.
In assay [3], `COc1cc(C(=O)N2CC[C@@H](O)[C@@H](N)C2)cc2nc(-c3cc4ccccc4n3CC3CC3)n(C)c12` yielded a pXC50 of 4.9 M.
For `C=CC(=O)Nc1cc(-n2c(=O)ccc3cnc4ccc(-c5ccc(NS(C)(=O)=O)cc5)cc4c32)ccc1C`, the % of control in assay [4] (at 1 µM) and in assay [4] (at 10 µM) was 100% each time.
Turning to `CNC(=O)Nc1ccc(-c2nc(N3CC4CCC(C3)O4)c3cnn(C4CCC5(CC4)OCCO5)c3n2)cc1`, the % of control in assay [5] amounted to 93%.
Take `O[C@H]1CC[C@H](Nc2ncc3nc(Nc4c(F)cc(F)cc4F)n([C@H]4CCOC4)c3n2)CC1`: the % of control in assay [6] was 37%.
